In patent EP1961738A1, “New compounds with antiglutamatergic properties and uses thereof” (Faust Pharmaceuticals, priority 2007, dated 2008):

Tested on: cerebrospinal fluid glutamate level
Assay: Intracerebroventricular retrodialysis in rats with enzymatic chemiluminescent glutamate determination in microdialysates
Assay type: in vivo, Sprague-Dawley rats
Procedure: For this example, intracerebroventricular retrodialysis was performed on rats according to techniques known to those skilled in the art. The analysis of microdialysates was performed according to Israël and collaborators' publication (Neurochem Int 22(1): 53-58, 1993). Procedures are described below:
Surgery was performed on adult male Sprague-Dawley rats weighing 330-340g at the time of surgery. Following induction of anaesthesia with intraperitoneal administration of ketamine/xylazine, animals were secured in a stereotaxic frame in the flat-skull position at a constant setting of -3.3mm between ear and incisor bars. After defining the "stereotaxic zero" in accordance with Paxinos and Watson's atlas (1986), a microdialysis guide cannula was directed towards the right lateral ventricle with the coordinates from Bregma: anteroposterior -0.8mm, mediolateral +1.5mm, and dorsoventral (DV) -1.5mm (CMA12 probe: 2mm membrane) (Khandewal et al., J Neurosci Methods 133(1-2): 181-189, 2004).
The guide cannula was fixed to the skull using dental cement and three stainless steel screws. […]
Samples were subsequently analysed for glutamate determination using an enzymatic assay (Israël et al., 1993). The procedure is based on the oxidation of L-glutamate […] with subsequent NADH production, the NADH being continuously evaluated using the photobacterium chemiluminescent reaction at 460-490nm. […]

SMILES: NC(=O)NN=C1C=Cc2ccc(OCCN3CCOCC3)cc2C1=O [Example 13, 7-(2-morpholin-4-yl-ethoxy) naphtalene-1,2-dione2-semicarbazone]
- response of cerebrospinal fluid glutamate level to the compound (rat C (one rat out of five), 30µM solution by retrodialysis for 40min): did not response
- decrease of the cerebrospinal fluid glutamate level (rats A, B, D and E (four of five), 30µM solution by retrodialysis for 40min into right lateral ventricle, after 80 minutes, relative to baseline set at 100%): up to 50%
